According to US6335367B1 (priority 1999, dated 2002):

Columns and labels:
Assay type in all cases: in vivo
[1] = system: Pucciitia recoitdita (f. sp. tritici); details: 300 grams per hectare; protective spray, inoculated one day after treatment; evaluated after 12 days
[2] = system: Plasiitopara viticola; experiment: Grape Downy Mildew (GDM) protective test on grape plants; details: 300 grams/hectare; protective spray; seven days after inoculation
Method: Numerous compounds of this invention were tested for fungicidal activity in vivo against the diseases described below. The compounds were dissolved a 1:1 mixture of acetone and methanol or N, N-dimethylformamide and diluted with a 2:1:1 mixture of water, acetone, and methanol (by volume) or water, respectively, to achieve the appropriate concentration. The solution was sprayed onto the plants, and allowed to dry (two hours). Then the plants were inoculated with fungal spores. Each test utilized control plants which were sprayed with the appropriate solvent mixture and inoculated. For these protective tests, the plants were inoculated one day after treating the plants with the fungicide compound. The remainder of the technique of each of the tests is given below along with the results for various compounds described herein by the Compound # against the various fungi at a dose of 300 grams per hectare. The results are percent disease control are compared to the untreated check wherein one hundred was rated as complete disease control and zero as no disease control.
Plasiitopara viticola was maintained on leaves of grape plants, cultivar. Delaware, in a controlled temperature chamber at 20° C. in humid air with moderate light intensity for 7 to 8 days. A water suspension of the spores from infested leaves was obtained and the spore concentration was adjusted to about 3×10^5 per ml of water. Delaware grape plants were inoculated by spraying the underside of leaves with a DeVilbiss atomizer until small drops were observed on the leaves. The inoculated plants were incubated in a mist chamber for 24 hours at 20° C. The plants were then removed to a controlled environmental room at 20° C. Disease control values were recorded as percent control seven days after inoculation.

[3] = system: Mexican bean beetle Epilachiba varivestis; experiment: Insecticidal leaf disk test, Mexican bean beetle (BB); details: 300 grams/hectare; sprayed leaf disk; visual inspection 24-48 hours after spraying
Method: (§1) Numerous compounds of this invention were tested for insecticidal activity in vivo against the insects described below. The following test method was used to evaluate compounds of the present invention for insecticidal activity. The compound to be evaluated was dissolved in an appropriate solvent, usually a mix of acetone, methanol and water, and sprayed over three excised leaf disks using a flat fan nozzle. After spraying, the leaf disks were allowed to dry. Two disks were infested with the leaf chewing insects (southern armyworm and Mexican bean beetle) and the third leaf disk was already infested with the two-spotted spider mite prior to spraying. The tested insect species were:
BB Mexican bean beetle Epilachiba varivestis
(§2) Observations as percent control were made by visual inspection 24-48 hours after spraying.

[4] = system: two-spotted spider mite Teranychus uricate; experiment: Insecticidal leaf disk test, two-spotted spider mite (MTA); details: 300 grams/hectare; leaf disk infested prior to spraying; visual inspection 24-48 hours after spraying
Method: as §1
MTA two-spotted spider mite Teranychus uricate
as §2

Structure (SMILES)	percent disease control, wheat leaf rust [1]	percent disease control, grape downy mildew [2]	percent control, Mexican bean beetle [3]	percent control, two-spotted spider mite [4]
CCON=C(C1CC1)C1CC1c1cccc(OCc2ccccc2C(=COC)C(=O)OC)c1 (single isomer, unassigned) [Compound 1.108B]	100%	100%		
COC=C(C(=O)OC)c1ccccc1COc1cccc(C2CC2C(=NOC(C)(C)C)C2CC2)c1 (stereo not shown) [Compound 1.110]			100%	100%
COC=C(C(=O)OC)c1ccccc1COc1cccc(C2CC2C(=NOC)c2ccc(Cl)cc2)c1 (stereo not shown) [Compound 1.04]	100%			100%
CNC(=O)C(=NOC)c1ccccc1COc1cccc(C2CC2C(=NOC)C2CC2)c1 (stereo not shown) [Compound 3.34]	100%	100%		
COC=C(C(=O)OC)c1ccccc1COc1cccc(C2CC2C(C)=NOC)c1 (single isomer, unassigned) [Compound 1.18A]	100%	100%	100%	100%
COC=C(C(=O)OC)c1ccccc1COc1cccc(C2CC2C(=NOC)C2CC=C(C)CC2)c1 (stereo not shown) [Compound 1.33]			100%	100%
CCCCCCC(=NOC)C1CC1c1cccc(OCc2ccccc2/C(=C\OC)C(=O)OC)c1 (stereo not drawn) [Compound 1.23, Methyl (E)-3-methoxy-2-trans-[2-(3-(2-(methoximinohept-1-yl)cyclopropyl)-phenoxymethyl)phenyl]-2-propenoate]		100%	100%	100%
CCC(C)C(NNc1ccccc1)=C1CC1c1cccc(OCc2ccccc2/C(=C\OC)C(=O)OC)c1 (stereo not drawn) [Compound 4.17, Methyl (E)-3-methoxy-2-trans-[2-(3-(2-(2-ethyl-1-(2-phenylhydrazino)propylidene)cyclopropyl)phenoxymethyl)phenyl]-2-propenoate]	100%			
COC=C(C(=O)OC)c1ccccc1COc1cccc(C2CC2C(CC(C)C)=NOC)c1 (stereo not shown) [Compound 1.24]		100%	100%	100%
COC=C(C(=O)OC)c1ccccc1COc1cccc(C2CC2C(=NOCc2ccccc2)C2CC2)c1 (stereo not shown) [Compound 1.115]		100%	100%	100%
CO/C=C(/C(=O)OC)c1ccccc1COc1cccc(C2CC2C(=NOC)C2CC2)c1 (stereo not drawn) [Compound 1.34, Methyl (E)-3-methoxy-2-trans-[2-(3-(2-(methoximinocycloprop-1-yl)cyclopropyl)phenoxymethyl)phenyl]-2-propenoate]	100%	100%	100%	100%
COC=C(C(=O)OC)c1ccccc1COc1cccc(C2CC2C(=NNC(=O)c2ccccc2)C2CC2)c1 (stereo not drawn) [Compound 4.98, Methyl (E)-3-methoxy-2-trans-[2-(3-(2-(1-(N-benzoylhydrazinomethylidine)cycloprop-1-yl)cyclopropyl)phenoxymethyl)phenyl]-2-propenoate]	100%			
CNC(=O)C(=NOC)c1ccccc1COc1cccc(C2CC2C(C)=NOC)c1 (single isomer, unassigned) [Compound 3.18B]	100%	100%		
CCON=C(C1CC1)C1CC1c1cccc(OCc2ccccc2C(=COC)C(=O)OC)c1 (single isomer, unassigned) [Compound 1.108A]	100%	100%	100%	100%
CNC(=O)C(=NOC)c1ccccc1COc1cccc(C2CC2C(C)=NOC)c1 (single isomer, unassigned) [Compound 3.18A]	100%			
COC=C(C(=O)OC)c1ccccc1COc1cccc(C2CC2C(C)=NOC)c1 (single isomer, unassigned) [Compound 1.18B]	100%	100%	100%	100%
